For test [1], the system named is HEK293. Nature of the test: cells. Conditions: Homo sapiens. It counts as functional, cell-based.
In test [2] the test system is HEK293. The test can be described thus: NOD2 signaling inhibitors in MDP-stimulated cells, cell-based, uHTS, luminescence (AID 2001). Type of test: functional. Particulars: Homo sapiens.
The test system of test [3] is HEK293. Nature of the test: cells. It counts as functional, cell-based. Particulars: Homo sapiens. The source holds these as a separate data set.
The target of test [4] is Nucleotide-binding oligomerization domain-containing protein 2 (Homo sapiens, UniProt Q9HC29). The test can be described thus: NOD2 signaling inhibitors, cell-based, luminescence, uHTS, HEK293 (AID 1566). It counts as functional.
Chain of Nucleotide-binding oligomerization domain-containing protein 2 (Q9HC29 whole entry, the tested form may be a part): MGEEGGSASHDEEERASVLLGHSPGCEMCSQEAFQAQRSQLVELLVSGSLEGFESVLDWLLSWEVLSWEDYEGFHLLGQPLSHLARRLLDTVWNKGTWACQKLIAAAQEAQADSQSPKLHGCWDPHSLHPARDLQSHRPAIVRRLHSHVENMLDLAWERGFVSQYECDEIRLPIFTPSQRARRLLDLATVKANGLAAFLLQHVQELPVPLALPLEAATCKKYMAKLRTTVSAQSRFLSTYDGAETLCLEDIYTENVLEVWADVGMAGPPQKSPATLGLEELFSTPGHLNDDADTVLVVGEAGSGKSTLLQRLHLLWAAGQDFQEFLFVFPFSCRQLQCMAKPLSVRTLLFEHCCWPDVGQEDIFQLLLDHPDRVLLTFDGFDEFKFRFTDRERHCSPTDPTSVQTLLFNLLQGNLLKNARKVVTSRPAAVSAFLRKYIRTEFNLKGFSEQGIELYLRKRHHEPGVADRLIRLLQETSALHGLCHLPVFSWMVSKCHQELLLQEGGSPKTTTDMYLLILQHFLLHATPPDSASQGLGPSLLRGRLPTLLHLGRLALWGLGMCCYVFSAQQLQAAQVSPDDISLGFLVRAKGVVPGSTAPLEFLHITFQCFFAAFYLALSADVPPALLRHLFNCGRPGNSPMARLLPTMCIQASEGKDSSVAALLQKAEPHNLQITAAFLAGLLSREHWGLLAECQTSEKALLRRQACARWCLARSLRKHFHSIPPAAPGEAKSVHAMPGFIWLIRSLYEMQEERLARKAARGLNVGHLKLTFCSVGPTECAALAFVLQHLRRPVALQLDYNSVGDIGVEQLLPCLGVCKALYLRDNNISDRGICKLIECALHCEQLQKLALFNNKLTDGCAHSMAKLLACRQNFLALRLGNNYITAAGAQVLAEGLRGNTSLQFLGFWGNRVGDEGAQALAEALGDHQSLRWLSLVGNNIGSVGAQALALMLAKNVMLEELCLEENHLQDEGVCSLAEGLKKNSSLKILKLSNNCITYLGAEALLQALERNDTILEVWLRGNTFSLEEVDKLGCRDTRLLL
Test [5] has as its target T1, Heat shock factor protein 1 (Mus musculus, UniProt P38532).
T1 sequence (P38532 whole entry): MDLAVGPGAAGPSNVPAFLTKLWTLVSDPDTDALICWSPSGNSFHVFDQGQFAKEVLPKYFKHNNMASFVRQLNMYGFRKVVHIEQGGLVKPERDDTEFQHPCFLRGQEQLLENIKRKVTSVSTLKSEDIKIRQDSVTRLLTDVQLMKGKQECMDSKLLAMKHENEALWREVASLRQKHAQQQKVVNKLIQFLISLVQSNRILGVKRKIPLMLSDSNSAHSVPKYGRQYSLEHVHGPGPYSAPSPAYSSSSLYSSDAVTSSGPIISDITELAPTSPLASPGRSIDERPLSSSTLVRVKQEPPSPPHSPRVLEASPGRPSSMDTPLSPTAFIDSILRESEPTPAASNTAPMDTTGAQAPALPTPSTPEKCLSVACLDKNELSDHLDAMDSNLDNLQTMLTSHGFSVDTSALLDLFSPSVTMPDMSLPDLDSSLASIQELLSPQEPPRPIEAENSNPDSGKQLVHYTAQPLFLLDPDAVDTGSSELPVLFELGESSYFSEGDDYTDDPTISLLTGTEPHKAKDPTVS
Nature of the test: HSF1 potentiators in luciferase reporter cells, confirmation, cell-based, NIH3T3, luminescence, dose retest (AID 435004).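 Also: stress induced by proteasome inhibitor MG132 added 30 min after compound; luciferase reporter driven by HSF1 response element in NIH3T3 cells; actives raise luminescence as potentiators of the MG132 stress response.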 It counts as functional.

In test [6] the test system is HEK293. Nature of the test: NOD1 signaling inhibitors, primary screen, cell-based, luminescence, uHTS (AID 1578). Type of test: functional. Particulars: Homo sapiens.
Test [7] relates to HEK293. The test can be described thus: cells. Type of test: functional, cell-based. Conditions: Homo sapiens. The source holds these as a separate data set.
The subject of the next test is H9c2. Nature of the test: cells. It counts as functional, cell-based. Conditions: Rattus norvegicus, H9c2, Myocardium.
A short description of test [8]: inhibitors of firefly luciferase expression or activity, dose response, H4 neuroglioma cells, luminescence (AID 1990). Type of test: functional, cell-based.
For a further test, the target named is T2, Caspase-3 (Homo sapiens, UniProt P42574).
T2 sequence (P42574 whole entry): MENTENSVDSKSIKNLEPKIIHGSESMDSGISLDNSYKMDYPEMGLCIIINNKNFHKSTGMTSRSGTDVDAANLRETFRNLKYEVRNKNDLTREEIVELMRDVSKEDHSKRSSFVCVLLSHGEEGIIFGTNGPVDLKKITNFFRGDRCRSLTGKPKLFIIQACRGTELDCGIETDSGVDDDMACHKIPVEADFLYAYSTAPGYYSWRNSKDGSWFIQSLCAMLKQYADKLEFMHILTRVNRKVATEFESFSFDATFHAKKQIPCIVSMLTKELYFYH
The test can be described thus: procaspase-3 activators, dose response, biochemical, absorbance (AID 489014).

Test [9] can be described thus: Counterscreen for AddAB inhibitors: absorbance-based bacterial cell-based high throughput dose response assay for inhibitors of bacterial viability. [Related pubchem assays (depositor defined):AID435030, AID449728, AID449731, AID488942, AID488955, AID488956]. Type of test: functional.
The nature of test [10]: inhibitors of SNCA 5'UTR-driven reporter translation, confirmation, H4 neuroglioma cells, luminescence (AID 1988). It counts as functional, cell-based.
The next test concerns the target Caspase-7 (Homo sapiens, UniProt P55210). Nature of the test: procaspase-7 activators, dose response, counter-screen for procaspase-3 activator project, biochemical, absorbance (AID 489013).
Test [11] is described as follows: Luminescence Cell-Based Dose Response HTS to Identify Inhibitors of 5'UTR Stem-Loop Driven Prion Protein mRNA Translation in H4 Neuroglioblastoma Cells. [Related pubchem assays: 1827 (Project Summary), 1813 (Primary HTS)]. It counts as functional.
The next test relates to INS1. The test can be described thus: beta cell apoptosis inhibitors, cytokine rescue, dose response, luminescence, retest (AID 449756).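 Also: cell death triggered by IL-1 beta plus TNF-alpha plus IFN-gamma mixture; protective hits raise ATP signal compared with cytokine alone wells.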 Type of test: functional, cell-based. Conditions: Rattus norvegicus.
The target of a further test is T3, Exodeoxyribonuclease V (Escherichia coli (strain K12), UniProt P04993+P07648+P08394).
T3 sequence (P04993 whole entry): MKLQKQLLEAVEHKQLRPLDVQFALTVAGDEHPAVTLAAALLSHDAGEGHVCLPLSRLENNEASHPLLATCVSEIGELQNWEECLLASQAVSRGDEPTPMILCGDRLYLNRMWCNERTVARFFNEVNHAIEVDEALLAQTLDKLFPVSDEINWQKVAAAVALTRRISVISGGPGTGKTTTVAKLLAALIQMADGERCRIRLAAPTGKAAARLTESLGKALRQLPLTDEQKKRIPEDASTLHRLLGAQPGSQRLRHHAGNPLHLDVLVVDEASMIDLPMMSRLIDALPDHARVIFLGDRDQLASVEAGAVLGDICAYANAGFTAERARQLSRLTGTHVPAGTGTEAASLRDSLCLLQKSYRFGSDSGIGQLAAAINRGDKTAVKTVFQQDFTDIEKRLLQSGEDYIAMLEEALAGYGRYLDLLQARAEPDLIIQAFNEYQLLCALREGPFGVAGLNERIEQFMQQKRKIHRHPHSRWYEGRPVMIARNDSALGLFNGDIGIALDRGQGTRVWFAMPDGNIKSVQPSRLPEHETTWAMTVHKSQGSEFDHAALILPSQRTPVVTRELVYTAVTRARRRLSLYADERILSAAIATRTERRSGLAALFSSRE
T3 sequence (P07648 whole entry): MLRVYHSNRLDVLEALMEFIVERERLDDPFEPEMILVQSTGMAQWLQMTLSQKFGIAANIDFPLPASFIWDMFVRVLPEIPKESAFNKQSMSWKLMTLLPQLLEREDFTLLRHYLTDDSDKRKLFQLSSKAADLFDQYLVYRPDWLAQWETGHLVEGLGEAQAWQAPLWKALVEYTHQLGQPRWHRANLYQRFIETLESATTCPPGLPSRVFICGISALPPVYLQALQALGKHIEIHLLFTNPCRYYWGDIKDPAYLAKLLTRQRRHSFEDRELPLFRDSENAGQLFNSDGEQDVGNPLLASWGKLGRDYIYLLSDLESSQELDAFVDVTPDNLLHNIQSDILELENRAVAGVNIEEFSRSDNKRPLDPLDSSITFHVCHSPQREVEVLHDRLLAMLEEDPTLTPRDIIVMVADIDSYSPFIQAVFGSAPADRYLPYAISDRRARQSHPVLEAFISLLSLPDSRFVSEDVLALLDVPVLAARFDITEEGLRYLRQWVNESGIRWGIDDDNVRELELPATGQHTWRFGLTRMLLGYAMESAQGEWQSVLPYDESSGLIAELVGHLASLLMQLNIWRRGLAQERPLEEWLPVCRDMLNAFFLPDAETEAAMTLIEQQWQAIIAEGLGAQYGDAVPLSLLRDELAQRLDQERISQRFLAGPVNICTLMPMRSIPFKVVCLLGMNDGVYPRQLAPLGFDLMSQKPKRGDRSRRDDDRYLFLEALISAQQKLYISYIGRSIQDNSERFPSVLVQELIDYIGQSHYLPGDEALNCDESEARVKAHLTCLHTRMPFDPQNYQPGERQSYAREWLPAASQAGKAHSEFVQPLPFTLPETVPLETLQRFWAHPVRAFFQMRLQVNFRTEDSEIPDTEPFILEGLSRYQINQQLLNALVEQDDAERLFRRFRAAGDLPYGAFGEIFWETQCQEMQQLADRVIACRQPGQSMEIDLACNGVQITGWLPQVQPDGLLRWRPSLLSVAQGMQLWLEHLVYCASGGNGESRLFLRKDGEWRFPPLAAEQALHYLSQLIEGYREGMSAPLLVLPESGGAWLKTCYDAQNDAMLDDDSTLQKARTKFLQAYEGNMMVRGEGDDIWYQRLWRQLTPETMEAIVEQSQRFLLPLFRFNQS
T3 sequence (P08394 whole entry): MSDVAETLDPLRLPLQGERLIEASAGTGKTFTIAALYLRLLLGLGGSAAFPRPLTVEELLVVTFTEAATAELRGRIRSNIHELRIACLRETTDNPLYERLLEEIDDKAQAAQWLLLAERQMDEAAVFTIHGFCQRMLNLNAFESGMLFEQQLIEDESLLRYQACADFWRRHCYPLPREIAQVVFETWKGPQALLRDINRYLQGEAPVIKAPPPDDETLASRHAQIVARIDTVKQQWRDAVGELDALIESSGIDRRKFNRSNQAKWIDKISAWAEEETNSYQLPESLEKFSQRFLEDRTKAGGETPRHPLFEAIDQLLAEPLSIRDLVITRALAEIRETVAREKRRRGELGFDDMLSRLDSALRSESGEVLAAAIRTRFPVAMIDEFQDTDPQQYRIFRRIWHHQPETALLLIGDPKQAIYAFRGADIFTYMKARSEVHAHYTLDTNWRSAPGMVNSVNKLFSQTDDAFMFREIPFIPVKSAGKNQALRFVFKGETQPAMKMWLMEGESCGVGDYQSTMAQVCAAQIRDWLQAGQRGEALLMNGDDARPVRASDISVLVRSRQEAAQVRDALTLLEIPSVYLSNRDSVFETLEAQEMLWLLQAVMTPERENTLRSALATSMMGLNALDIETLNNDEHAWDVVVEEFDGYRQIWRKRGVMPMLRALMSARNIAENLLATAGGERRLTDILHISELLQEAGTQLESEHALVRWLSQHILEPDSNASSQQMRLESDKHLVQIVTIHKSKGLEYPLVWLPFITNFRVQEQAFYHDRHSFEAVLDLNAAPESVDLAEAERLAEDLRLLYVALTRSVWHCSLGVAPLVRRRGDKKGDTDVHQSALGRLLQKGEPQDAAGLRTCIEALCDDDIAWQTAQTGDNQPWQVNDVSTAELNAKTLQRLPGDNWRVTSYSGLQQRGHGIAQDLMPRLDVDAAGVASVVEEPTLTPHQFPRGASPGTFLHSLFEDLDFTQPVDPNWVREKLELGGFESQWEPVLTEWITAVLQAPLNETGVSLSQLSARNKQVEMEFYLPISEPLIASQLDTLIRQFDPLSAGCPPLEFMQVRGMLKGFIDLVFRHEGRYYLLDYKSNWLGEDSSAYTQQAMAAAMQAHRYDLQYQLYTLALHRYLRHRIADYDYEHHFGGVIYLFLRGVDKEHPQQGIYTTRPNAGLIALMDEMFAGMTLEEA
Nature of the test: E. coli RecBCD inhibitors, dose response, counter-screen for AddAB inhibitor project, absorbance, V66 E. coli, mutant T4 phage (AID 492957). It counts as functional, cell-based, Escherichia coli str. K-12 substr. MG1655.

Test [12] has as its target T4, Alkaline phosphatase, tissue-nonspecific isozyme (Homo sapiens, UniProt P05186).
T4 sequence (P05186 whole entry): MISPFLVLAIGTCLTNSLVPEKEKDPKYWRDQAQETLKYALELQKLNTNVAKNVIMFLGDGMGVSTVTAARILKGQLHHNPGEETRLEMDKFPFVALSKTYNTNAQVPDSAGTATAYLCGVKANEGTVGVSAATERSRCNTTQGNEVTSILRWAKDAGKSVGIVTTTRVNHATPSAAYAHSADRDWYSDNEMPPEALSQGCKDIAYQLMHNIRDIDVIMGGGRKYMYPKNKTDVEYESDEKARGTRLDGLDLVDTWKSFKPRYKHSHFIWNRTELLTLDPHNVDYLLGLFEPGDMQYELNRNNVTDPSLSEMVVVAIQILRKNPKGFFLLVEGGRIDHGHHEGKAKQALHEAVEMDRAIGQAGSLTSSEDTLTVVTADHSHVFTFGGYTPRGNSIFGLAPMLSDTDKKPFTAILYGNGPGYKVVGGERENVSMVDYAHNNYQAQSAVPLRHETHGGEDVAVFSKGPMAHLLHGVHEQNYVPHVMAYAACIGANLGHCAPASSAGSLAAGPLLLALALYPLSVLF
Nature of the test: human TNAP enzyme inhibitors, SAR follow-up, biochemical, luminescent, dose response (AID 1056).

Test [13] has as its target Alkaline phosphatase, placental type (Homo sapiens, UniProt P05187). The test can be described thus: PLAP enzyme inhibitors, confirmation, biochemical, luminescence (AID 1512). It counts as functional.
In test [14] the target is Glyceraldehyde-3-phosphate dehydrogenase (Homo sapiens, UniProt P04406).
Chain of Glyceraldehyde-3-phosphate dehydrogenase (P04406 whole entry): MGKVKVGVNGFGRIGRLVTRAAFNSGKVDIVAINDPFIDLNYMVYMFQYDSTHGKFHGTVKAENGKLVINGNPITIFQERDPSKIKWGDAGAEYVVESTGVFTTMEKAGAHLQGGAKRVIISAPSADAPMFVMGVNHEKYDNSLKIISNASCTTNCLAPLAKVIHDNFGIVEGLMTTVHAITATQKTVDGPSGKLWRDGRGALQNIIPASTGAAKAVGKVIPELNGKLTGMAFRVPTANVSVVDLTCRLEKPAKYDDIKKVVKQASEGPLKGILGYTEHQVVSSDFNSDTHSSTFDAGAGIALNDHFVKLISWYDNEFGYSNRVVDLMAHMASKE

The source made the active and inactive calls. Bounds are passed on as bounds.

Chain of Alkaline phosphatase, placental type (P05187 whole entry): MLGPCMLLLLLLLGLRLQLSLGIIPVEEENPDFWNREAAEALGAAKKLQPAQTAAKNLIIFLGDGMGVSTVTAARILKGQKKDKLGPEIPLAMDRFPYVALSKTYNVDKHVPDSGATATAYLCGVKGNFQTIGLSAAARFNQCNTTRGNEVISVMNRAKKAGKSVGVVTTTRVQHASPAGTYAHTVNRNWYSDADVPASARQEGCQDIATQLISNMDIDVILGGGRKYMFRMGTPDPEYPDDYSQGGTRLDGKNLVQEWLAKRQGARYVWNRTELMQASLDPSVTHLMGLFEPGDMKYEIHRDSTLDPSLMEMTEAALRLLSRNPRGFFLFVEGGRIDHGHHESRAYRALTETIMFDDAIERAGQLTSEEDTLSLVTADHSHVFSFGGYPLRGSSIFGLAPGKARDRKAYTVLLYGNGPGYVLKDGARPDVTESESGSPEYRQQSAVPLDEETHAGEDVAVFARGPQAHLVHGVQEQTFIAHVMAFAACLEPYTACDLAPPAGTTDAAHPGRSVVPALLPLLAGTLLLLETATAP
Chain of Caspase-7 (P55210 24-198 limits assumed): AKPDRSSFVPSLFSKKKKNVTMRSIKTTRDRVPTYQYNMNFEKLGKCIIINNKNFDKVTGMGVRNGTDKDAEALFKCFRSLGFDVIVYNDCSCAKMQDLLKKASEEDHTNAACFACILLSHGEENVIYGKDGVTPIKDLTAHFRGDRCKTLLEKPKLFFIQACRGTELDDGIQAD
Chain of Caspase-7 (P55210 207-303 limits assumed): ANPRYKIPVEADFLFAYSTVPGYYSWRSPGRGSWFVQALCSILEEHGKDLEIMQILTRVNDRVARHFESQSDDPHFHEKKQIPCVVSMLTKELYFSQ

`CCc1ccc(CN(C)C(=O)CCc2nc3ccccc3n(-c3ccc(OC)cc3)c2=O)cc1`: the IC50 in the test with HEK293 [1] was > 20 µM (inactive); in the test on HEK293 [2] it was 5.96 µM (active); with HEK293 [3], > 20 µM (inactive); with HEK293 [7], > 20 µM (inactive). Further, the EC50 is 16 µM (active) in test [4], > 260 µM (inactive) in [5] and 12.7 µM (active) in the test on HEK293 [6].

For `CCCNC(=O)c1ccc2c(O)c(O)c(-c3ccc(C)cc3)nc2c1`, the IC50 was > 79 µM (inactive) in the test on H9c2, > 119 µM (inactive) in test [9] and > 119 µM (inactive) on Exodeoxyribonuclease V. The concentration for a half-maximal effect (EC50) in test [8] was 9.71 µM (active); on Caspase-3, > 85.3 µM (inactive); in test [10], 8.86 µM (active); at Caspase-7 it was > 85.3 µM (inactive); in [11], > 120 µM (not active). Besides, the concentration at half-maximal activity (AC50) in the test on INS1 is 7.24 µM (active).

Turning to `COc1ccc(Cc2nc(N)nn2-c2ccccc2)cc1`, the results for the IC50 in test [12], in [13] and in test [14] were > 100 µM (inactive), > 100 µM (inactive) and > 100 µM (not active), respectively.

Consider `Cc1cc(C)nc(SCC(=O)c2ccc3c(c2)OCO3)n1`, for which the IC50 in test [12] and in test [13] was > 100 µM (inactive) throughout.
